Measured values published in ChEMBL document CHEMBL3872220, “Amphiphilic xanthones as a potent chemical entity of anti-mycobacterial agents with membrane-targeting properties” (Eur J Med Chem, 2016).

Assays:
Type in all cases: functional, Mycobacterium tuberculosis variant bovis BCG
[1] = test system: Mycobacterium tuberculosis variant bovis; test: Antimycobacterial activity against Mycobacterium bovis BCG ATCC 35734 assessed as ATP leakage by measuring intracellular ATP at 2 times MIC measured immediatey after addition of compounds by luciferase reporter gene assay
[2] = test system: Mycobacterium tuberculosis variant bovis; test: Antimycobacterial activity against Mycobacterium bovis BCG ATCC 35734 assessed as ATP leakage by measuring intracellular ATP at 4 times MIC measured at 24 hrs post dose by luciferase reporter gene assay
[3] = test system: Mycobacterium tuberculosis variant bovis; test: Antimycobacterial activity against Mycobacterium bovis BCG ATCC 35734 assessed as ATP leakage by measuring extracellular ATP at 2 times MIC measured at 24 hrs post dose by luciferase reporter gene assay
[4] = test system: Mycobacterium tuberculosis variant bovis; test: Antimycobacterial activity against Mycobacterium bovis BCG ATCC 35734 assessed as ATP leakage by measuring intracellular ATP at 0.5 times MIC measured immediatey after addition of compounds by luciferase reporter gene assay
[5] = test system: Mycobacterium tuberculosis variant bovis; test: Induction of membrane integrity impairment in Mycobacterium bovis BCG ATCC 35734 assessed as pH shift at 60 uM measured after 3 hrs by CMFDA dye based fluorescence spectroscopic method relative to control
[6] = test system: Mycobacterium tuberculosis variant bovis; test: Antimycobacterial activity against Mycobacterium bovis BCG ATCC 35734 assessed as ATP leakage by measuring intracellular ATP at 1 MIC measured at 6 hrs post dose by luciferase reporter gene assay
[7] = test system: Mycobacterium tuberculosis variant bovis; test: Antimycobacterial activity against Mycobacterium bovis BCG ATCC 35734 assessed as ATP leakage by measuring extracellular ATP at 1 MIC measured immediatey after addition of compounds by luciferase reporter gene assay
[8] = test system: Mycobacterium tuberculosis variant bovis; test: Antimycobacterial activity against Mycobacterium bovis BCG ATCC 35734 assessed as ATP leakage by measuring extracellular ATP at 2 times MIC measured at 1 hr post dose by luciferase reporter gene assay
[9] = test system: Mycobacterium tuberculosis variant bovis; test: Antimycobacterial activity against Mycobacterium bovis BCG ATCC 35734 assessed as ATP leakage by measuring intracellular ATP at 2 times MIC measured at 6 hrs post dose by luciferase reporter gene assay
[10] = test system: Mycobacterium tuberculosis variant bovis; test: Antimycobacterial activity against Mycobacterium bovis BCG ATCC 35734 assessed as ATP leakage by measuring extracellular ATP at 4 times MIC measured at 6 hrs post dose by luciferase reporter gene assay
[11] = test system: Mycobacterium tuberculosis variant bovis; test: Antimycobacterial activity against Mycobacterium bovis BCG ATCC 35734 assessed as ATP leakage by measuring extracellular ATP at 4 times MIC measured at 3 hrs post dose by luciferase reporter gene assay
[12] = test system: Mycobacterium tuberculosis variant bovis; test: Antimycobacterial activity against Mycobacterium bovis BCG ATCC 35734 assessed as ATP leakage by measuring extracellular ATP at 4 times MIC measured at 9 hrs post dose by luciferase reporter gene assay
[13] = test system: Mycobacterium tuberculosis variant bovis; test: Antimycobacterial activity against Mycobacterium bovis BCG ATCC 35734 assessed as ATP leakage by measuring intracellular ATP at 0.5 times MIC measured at 3 hrs post dose by luciferase reporter gene assay
[14] = test system: Mycobacterium tuberculosis variant bovis; test: Antimycobacterial activity against Mycobacterium bovis BCG ATCC 35734 assessed as ATP leakage by measuring extracellular ATP at 4 times MIC measured at 1 hr post dose by luciferase reporter gene assay
[15] = test system: Mycobacterium tuberculosis variant bovis; test: Antimycobacterial activity against Mycobacterium bovis BCG ATCC 35734 assessed as ATP leakage by measuring intracellular ATP at 0.5 times MIC measured at 24 hrs post dose by luciferase reporter gene assay
[16] = test system: Mycobacterium tuberculosis variant bovis; test: Antimycobacterial activity against Mycobacterium bovis BCG ATCC 35734 assessed as ATP leakage by measuring intracellular ATP at 4 times MIC measured at 9 hrs post dose by luciferase reporter gene assay
[17] = test system: Mycobacterium tuberculosis variant bovis; test: Antimycobacterial activity against Mycobacterium bovis BCG ATCC 35734 assessed as ATP leakage by measuring intracellular ATP at 1 MIC measured at 9 hrs post dose by luciferase reporter gene assay
[18] = test system: Mycobacterium tuberculosis variant bovis; test: Antimycobacterial activity against Mycobacterium bovis BCG ATCC 35734 assessed as ATP leakage by measuring intracellular ATP at 1 MIC measured at 1 hr post dose by luciferase reporter gene assay
[19] = test system: Mycobacterium tuberculosis variant bovis; test: Antimycobacterial activity against Mycobacterium bovis BCG ATCC 35734 assessed as ATP leakage by measuring intracellular ATP at 0.5 times MIC measured at 9 hrs post dose by luciferase reporter gene assay
[20] = test system: Mycobacterium tuberculosis variant bovis; test: Antimycobacterial activity against Mycobacterium bovis BCG ATCC 35734 assessed as ATP leakage by measuring intracellular ATP at 4 times MIC measured immediatey after addition of compounds by luciferase reporter gene assay
[21] = test system: Mycobacterium tuberculosis variant bovis; test: Antimycobacterial activity against Mycobacterium bovis BCG ATCC 35734 assessed as ATP leakage by measuring extracellular ATP at 2 times MIC measured at 3 hrs post dose by luciferase reporter gene assay
[22] = test system: Mycobacterium tuberculosis variant bovis; test: Antimycobacterial activity against Mycobacterium bovis BCG ATCC 35734 assessed as ATP leakage by measuring extracellular ATP at 0.5 times MIC measured immediatey after addition of compounds by luciferase reporter gene assay
[23] = test system: Mycobacterium tuberculosis variant bovis; test: Antimycobacterial activity against Mycobacterium bovis BCG ATCC 35734 assessed as ATP leakage by measuring intracellular ATP at 4 times MIC measured at 1 hr post dose by luciferase reporter gene assay
[24] = test system: Mycobacterium tuberculosis variant bovis; test: Antimycobacterial activity against Mycobacterium bovis BCG ATCC 35734 assessed as ATP leakage by measuring intracellular ATP at 2 times MIC measured at 24 hrs post dose by luciferase reporter gene assay
[25] = test system: Mycobacterium tuberculosis variant bovis; test: Antimycobacterial activity against Mycobacterium bovis BCG ATCC 35734 assessed as ATP leakage by measuring extracellular ATP at 0.5 times MIC measured at 9 hrs post dose by luciferase reporter gene assay
[26] = test system: Mycobacterium tuberculosis variant bovis; test: Antimycobacterial activity against Mycobacterium bovis BCG ATCC 35734 assessed as ATP leakage by measuring extracellular ATP at 1 MIC measured at 24 hrs post dose by luciferase reporter gene assay
[27] = test system: Mycobacterium tuberculosis variant bovis; test: Antimycobacterial activity against Mycobacterium bovis BCG ATCC 35734 assessed as ATP leakage by measuring extracellular ATP at 4 times MIC measured at 24 hrs post dose by luciferase reporter gene assay
[28] = test system: Mycobacterium tuberculosis variant bovis; test: Antimycobacterial activity against Mycobacterium bovis BCG ATCC 35734 assessed as ATP leakage by measuring intracellular ATP at 1 MIC measured at 3 hrs post dose by luciferase reporter gene assay
[29] = test system: Mycobacterium tuberculosis variant bovis; test: Antimycobacterial activity against Mycobacterium bovis BCG ATCC 35734 assessed as ATP leakage by measuring extracellular ATP at 0.5 times MIC measured at 3 hrs post dose by luciferase reporter gene assay
[30] = test system: Mycobacterium tuberculosis variant bovis; test: Antimycobacterial activity against Mycobacterium bovis BCG ATCC 35734 assessed as ATP leakage by measuring extracellular ATP at 2 times MIC measured at 6 hrs post dose by luciferase reporter gene assay
[31] = test system: Mycobacterium tuberculosis variant bovis; test: Antimycobacterial activity against Mycobacterium bovis BCG ATCC 35734 assessed as ATP leakage by measuring extracellular ATP at 1 MIC measured at 6 hrs post dose by luciferase reporter gene assay
[32] = test system: Mycobacterium tuberculosis variant bovis; test: Antimycobacterial activity against Mycobacterium bovis BCG ATCC 35734 assessed as ATP leakage by measuring extracellular ATP at 4 times MIC measured immediatey after addition of compounds by luciferase reporter gene assay

SMILES	Activity [1] [%]	Activity [2] [%]	Activity [3] [%]	Activity [4] [%]	Activity [5] [%]	Activity [6] [%]	Activity [7] [%]	Activity [8] [%]	Activity [9] [%]	Activity [10] [%]	Activity [11] [%]	Activity [12] [%]	Activity [13] [%]	Activity [14] [%]	Activity [15] [%]	Activity [16] [%]	Activity [17] [%]	Activity [18] [%]	Activity [19] [%]	Activity [20] [%]	also measured
COc1c(OCCCCN2CCOCC2)cc2oc3cc(OCCCCN4CCOCC4)c(CC=C(C)C)c(O)c3c(=O)c2c1CC=C(C)C	91.9	31.5	50.2	100	30	85.6	4.7	16.7	72.6	62.8	33.4	58.4	91.4	25.4	95.2	41.6	86.5	88.5	92.7	85.7	Activity [21]: 20%; Activity [22]: 0%; Activity [23]: 74.6%; Activity [24]: 49.8%; Activity [25]: 7.3%; Activity [26]: 4.5%; Activity [27]: 68.5%; Activity [28]: 92.3%; Activity [29]: 8.6%; Activity [30]: 27.4%; Activity [31]: 14.4%; Activity [32]: 14.3%
CCCN(CCC)CCCCOc1cc2oc3cc(OCCCCN(CCC)CCC)c(OC)c(CC=C(C)C)c3c(=O)c2c(O)c1CC=C(C)C	97.8	14.8	70.5	100	61.6	69.6	2.5	10.1	36.8	69.7	42.1	84	79.9	16.8	84.4	16	51.5	86.8	74.6	90.6	Activity [21]: 44.2%; Activity [22]: 0%; Activity [23]: 83.2%; Activity [24]: 29.5%; Activity [25]: 25.4%; Activity [26]: 37.5%; Activity [27]: 85.2%; Activity [28]: 75.8%; Activity [29]: 20.1%; Activity [30]: 63.2%; Activity [31]: 30.4%; Activity [32]: 9.4%
CCN(CC)CCCCOc1cc2oc3cc(OCCCCN(CC)CC)c(OC)c(CC=C(C)C)c3c(=O)c2c(O)c1CC=C(C)C	96.4	6.8	94.1	100	68.7	29.3	2	42.4	8.1	93.3	89.6	94.5	72.6	66	65.3	5.5	14.7	75.1	52.8	89.5	Activity [21]: 83.6%; Activity [22]: 0%; Activity [23]: 34%; Activity [24]: 5.9%; Activity [25]: 47.2%; Activity [26]: 86.4%; Activity [27]: 93.2%; Activity [28]: 33.9%; Activity [29]: 27.4%; Activity [30]: 91.9%; Activity [31]: 70.7%; Activity [32]: 10.5%
